Assay results published in the CheMixHub viscosity set.

Test: xn = mol fraction of the nth substance listed

CCCNCCC + CCO
viscosity [mPa·s], 101.33 kPa
Conditions | x1 = 0.0942 | x1 = 0.1946 | x1 = 0.3116 | x1 = 0.4115 | x1 = 0.5186 | x1 = 0.6176 | x1 = 0.7061 | x1 = 0.8005 | x1 = 0.9058
303.15 K | 1.05 | 1.048 | 0.9952 | 0.9229 | 0.8291 | 0.7485 | 0.6803 | 0.6208 | 0.56
313.15 K | 0.8212 | 0.7926 | 0.7448 | 0.6985 | 0.6485 | 0.5986 | 0.5562 | 0.51 | 0.4624

CNS(C)(=O)=O + CCO
303.15 K, 101.33 kPa
Conditions | viscosity [mPa·s]
x1 = 0.1006 | 1.105
x1 = 0.201 | 1.3
x1 = 0.2995 | 1.58
x1 = 0.3949 | 1.871
x1 = 0.4923 | 2.303
x1 = 0.5949 | 2.888
x1 = 0.6892 | 3.612
x1 = 0.7757 | 4.493
x1 = 0.8905 | 6.09

CCOC(=O)c1ccccc1 + CCOC(C)=O
298.15 K, 101 kPa
Conditions | viscosity [mPa·s]
x2 = 0.1216 | 1.704
x2 = 0.2088 | 1.514
x2 = 0.3131 | 1.292
x2 = 0.3973 | 1.157
x2 = 0.5044 | 0.9851
x2 = 0.5998 | 0.8478
x2 = 0.6989 | 0.7247
x2 = 0.7997 | 0.6178
x2 = 0.8992 | 0.5188

CCn1cc[n+](C)c1.N#C[S-] + CCOS(=O)(=O)[O-].CC[n+]1ccn(C)c1
100 kPa
Conditions | viscosity [mPa·s]
298.15 K, x2 = 0.0495 | 24.95
323.15 K, x2 = 0.571 | 25.65

Cc1ccccc1[N+](=O)[O-] + CN1CCC[C@H]1c1cccnc1
viscosity [mPa·s], 101.33 kPa
Conditions | x2 = 0.1058 | x2 = 0.2027 | x2 = 0.2928 | x2 = 0.4027 | x2 = 0.4939 | x2 = 0.5968 | x2 = 0.6894 | x2 = 0.7864 | x2 = 0.8909
298.15 K | 2.229 | 2.424 | 2.583 | 2.775 | 3.008 | 3.117 | 3.335 | 3.47 | 3.697
323.15 K | 1.405 | 1.481 | 1.557 | 1.625 | 1.7 | 1.764 | 1.909 | 1.919 | 2.002

N#CCc1ccccc1 + CNC(C)=O
308.15 K, 101.33 kPa
Conditions | viscosity [mPa·s]
x2 = 0.0446 | 1.599
x2 = 0.2775 | 1.791
x2 = 0.3928 | 1.896
x2 = 0.5001 | 2.049
x2 = 0.6015 | 2.252
x2 = 0.6941 | 2.456
x2 = 0.7795 | 2.662
x2 = 0.8542 | 2.87
x2 = 0.9375 | 3.109

CC(C)O + CO
298.15 K, 101.33 kPa
Conditions | viscosity [mPa·s]
x2 = 0.0893 | 1.891
x2 = 0.225 | 1.625
x2 = 0.2835 | 1.518
x2 = 0.3984 | 1.332
x2 = 0.5178 | 1.16
x2 = 0.6024 | 1.051
x2 = 0.6852 | 0.945
x2 = 0.8272 | 0.772
x2 = 0.9058 | 0.675

Cc1ccccc1[N+](=O)[O-] + CO
298.15 K, 101 kPa
Conditions | viscosity [mPa·s]
x1 = 0.0021 | 0.5422
x1 = 0.0086 | 0.55
x1 = 0.0163 | 0.5579
x1 = 0.0287 | 0.5756
x1 = 0.0599 | 0.621
x1 = 0.0842 | 0.6536
x1 = 0.148 | 0.7466
x1 = 0.1606 | 0.7653
x1 = 0.2493 | 0.894
x1 = 0.2659 | 0.919
x1 = 0.3726 | 1.075
x1 = 0.4073 | 1.119
x1 = 0.4479 | 1.172
x1 = 0.5681 | 1.334
x1 = 0.6575 | 1.457
x1 = 0.7936 | 1.656
x1 = 0.8543 | 1.76
x1 = 0.9606 | 1.982

O=C(O)c1cccc([N+](=O)[O-])c1 + CO
viscosity [mPa·s], 101 kPa
Conditions | x1 = 0.0362 | x1 = 0.0466 | x1 = 0.0506 | x1 = 0.0604 | x1 = 0.09126 | x1 = 0.1046
308.15 K | 0.8055 | 0.9203 | 0.9556 | – | 1.889 | 2.773
313.15 K | – | – | – | – | 1.727 | 2.425
318.15 K | – | – | – | – | 1.573 | 2.262
323.15 K | 0.646 | 0.7331 | 0.7603 | 0.8441 | 1.421 | 2.026

CCOC(C)(C)C + COCCO
viscosity [mPa·s], 101 kPa
Conditions | 293.15 K | 298.15 K | 303.15 K
x1 = 0.0501 | 1.598 | 1.452 | 1.327
x1 = 0.1 | 1.493 | 1.361 | 1.246
x1 = 0.1508 | 1.386 | 1.267 | 1.164
x1 = 0.2 | 1.291 | 1.183 | 1.089
x1 = 0.2512 | 1.198 | 1.1 | 1.015
x1 = 0.299 | 1.118 | 1.029 | 0.951
x1 = 0.3489 | 1.041 | 0.961 | 0.89
x1 = 0.4 | 0.971 | 0.898 | 0.834
x1 = 0.4503 | 0.909 | 0.842 | 0.784
x1 = 0.499 | 0.854 | 0.793 | 0.74
x1 = 0.55 | 0.803 | 0.748 | 0.7
x1 = 0.61 | 0.75 | 0.7 | 0.657
x1 = 0.6599 | 0.711 | 0.665 | 0.625
x1 = 0.7 | 0.682 | 0.639 | 0.602
x1 = 0.7511 | 0.649 | 0.61 | 0.575
x1 = 0.8 | 0.621 | 0.584 | 0.552
x1 = 0.8489 | 0.595 | 0.561 | 0.532
x1 = 0.9 | 0.571 | 0.54 | 0.512
x1 = 0.949 | 0.55 | 0.521 | 0.495
